Test results: PMC11775389, “Catalytic mechanism underlying the regiospecificity of coumarin-substrate transmembrane prenyltransferases in Apiaceae” (Plant and Cell Physiology, 2024)
Where two headings read alike, the source gives them in different places.

Assays:
AgPT1 = settings: read-out: apparent Km, divalent cation
PsPT1 = target: T1, PsPT1 (Pastinaca sativa, UniProt A0A0U1ZEE9); assay: UHPLC of prenylated product, microsomes; format: biochemical; settings: C6 product (demethylsuberosin); DMAPP co-substrate, Mg2+, 28 °C; read-out: Demethylsuberosin / (C6-position product) / Umbelliferone
T1 construct: gene PT1; full CDS (with transit peptide) in pGWB502; transient expression in Nicotiana benthamiana leaves, microsomes
From the text: (§1) UHPLC of prenylated product, microsomes on PsPT1

[1] = test system: CC(C)=CCOP(=O)(O)OP(=O)(O)O; assay: UHPLC of prenylated product, microsomes; format: biochemical, Pastinaca sativa; settings: C6 product (demethylsuberosin), umbelliferone co-substrate, Mg2+, 28 °C
From the text: as §1

O=c1ccc2ccc(O)cc2o1 = assay: UHPLC of prenylated product, microsomes; format: biochemical, Pastinaca sativa; settings: D2P8 (T/A), C6 product (demethylsuberosin), DMAPP co-substrate, Mg2+, 28 °C
From the text: as §1

## CC(C)=CCOP(=O)(O)OP(=O)(O)O [DMAPP]
AgPT1; umbelliferone co-substrate
  Km: 10 ± 3 µM

## O=c1ccc2ccc(O)cc2o1 [umbelliferone]
AgPT1; DMAPP co-substrate
  Km: 40 ± 20 µM
PsPT1
  Km: 2.7 ± 0.6 µM

## PsPT1 (Pastinaca sativa)
[1]
  Km: 5 ± 1 µM

## PsPT1 (Pastinaca sativa; T161A)
O=c1ccc2ccc(O)cc2o1
  Km: 47 ± 7 µM
[1]; D2P8 (T/A)
  Km: 4.4 ± 0.8 µM
